Assay results from patent publication USRE35053E, “Amines useful in producing pharmaceutically active CNS compounds” (The Upjohn Company, priority 1992, dated 1995).
Structures can show the parent of a compound that is named as a salt.

How the values were obtained:
[1] = test system: conjugated diene formation in rat brain synaptosomes; test: Conjugated diene formation assay (lipid peroxidation); format: biochemical; details: 100 μM (or less) of the drug, active = 50% inhibition or more
Description: The formation of conjugated dienes as assayed by Braughler. […] Bucher, Fund.
Synaptosomal suspension (10 μl) is added to 1 ml of physiological (normal) saline containing 1% Lubrol PX (Sigma Chemical Co. St. Louis, Mo.). […] The reaction is started by the rapid addition of 200 μM ferrous ammonium sulfate prepared in argon-purged water. The sample is rapidly mixed and the change in absorbance at 232nm is followed in a Gilford Response Spectrophotometer equipped with a rapid sampler. Due to the rapidity of the reaction, rapid addition of the iron, rapid mixing and sampling are obligatory to the accuracy of the assay. For best results absorbance readings of one/sec should be started within 5 sec following the addition of iron. The initial linear rate of absorbance change during the first 30 sec of reaction are compared with the rate of a reaction containing all reagents except synaptosomes. The difference in rates is the rate of conjugated diene formation. Rates with drug are compared to rates obtained in the absence of drug and the % inhibition is calculated.

[2] = test system: arachidonic acid; test: Arachidonic Acid Antagonism Assay (AAAA); format: in vivo, mouse (Charles River male CF-1); details: mice; for arachidonic acid antagonism (elevation of LD50 of arachidonic acid): IV, 15 min before sodium arachidonate, outside 95% confidence interval of control LD50
Description: While not necessary to determine arachidonic acid antagonism, the above assay has been modified as follows: Charles River male CF-1 mice weighing […] are treated IV with the test compound dissolved in 1.0% Tween-80 and 0.1% hydrochloric acid in distilled water. 0 2 ml total volume. Fifteen minutes later sodium arachidonate (90% pure) in physiological (normal) […] is injected into the tail vein. The LD50 is measured using the Spearman-Karber method with a log dose interval of 0.05 (N-6). Compounds which elevate the LD50 outside of the 95% confidence interval of the control LD50 are considered to be "active".

[3] = test system: induced mucous secretions; test: inhibition of mucous secretion assay of Johnson; details: for inhibition of mucous secretion: inhibit or block enhancement of induced mucous secretions; for preferred mucous inhibitors per test results: ranking in words
Excerpt: The inhibition of mucous secretion assay of Johnson Int. […] According to this procedure compounds which inhibit or block enhancement of induced mucous secretions when tested are considered to be "active".

[4] = test system: angiogenesis; test: fertile egg or chick embryo assay of Folkman (inhibition of angiogenesis / tumor growth); format: in vivo; details: chick embryo; for inhibition of angiogenesis: 50 μg/10 μl with heparin, avascular zone 4 mm or greater
Description: According to this procedure compounds which are considered to be "active" (i.e, antiangiogenic) give an avascular zone of 4 mm or greater in some embryos when tested at 50 μg/10 μl in the presence of 50 μg/10 μ of heparin.

[5] = test system: MDA formation in rat brain synaptosomes; test: Malonyldialdehyde (MDA) Formation Assay (lipid peroxidation); format: biochemical; details: active = 50% inhibition or more at 200 μM or less
Excerpt: The MDA assays of Buege and Aust, Methods in Enzymology, Fleisher and Packer Editors. Academic Press, 1978, New York, Vol LII, p 302-310 and Kohn and Liversedge, J. Pharmacol. Exp. Ther. 82. […] Since iipid peroxidation is involved in the pathophysiology of central nervous system trauma, compounds which inhibit MDA formation are useful in treating the conditions listed below.
While not necessary to determine MDA formation, the above assays have been modified as follows: rat brain synaptosomes are prepared as described in the Example about the conjugated diene assay, except that the final wash of the synaptosomes and final suspension are in physiological (normal) saline in which the pH has been adjusted to 7 0. The synaptosomes are incubated for 10 min at 37° in physiological (normal) saline pH 7.0 (total volume=100 ul) containing; 10 ul synaptosomal suspension. 10% DMSO plus or minus drug. 150 uM Fe^+++ and 50 uM Fe^++. The incubation is started by the rapid addition of iron to the otherwise complete reaction. The iron solutions are prepared fresh as ferric chloride and ferrous ammonium sulfate in argon-purged water. Following the 10 min incubation, the reaction is stopped by the addition of 500 ul ice-cold 12% trichloroacetic acid prepared in 0.5 N hydrochloric acid. Water (300 ul) is then added along with 100 ul of freshly prepared thiobarbituric acid (3.3% in 0.5N sodium hydroxide) and 10 ul of 5mM desferrioxamine. The sample is then heated in a boiling water bath for 20 minutes. The samples are cooled and centrifuged for 15 minutes at 1500 xg and the absorbance of the supernatant fraction is read at 532 nm. The % inhibition of MDA formation is calculated by dividing the absorbance of sample containing drug by the absorbance of samples incubated without drug. Reaction blanks are samples incubated in the absence of iron A compound that inhibits MDA formation by 50% or more at a concentration of 200μM or less is considered "active".

[6] = test system: AcylCoA:Cholesterol Acyltransferase (ACAT); test: AcylCoA:Cholesterol Acyltransferase (ACAT) inhibition Assay; format: cell-based; parameters: key: compounds which inhibit ACAT activity equal to, or greater than, that of chlorpromazine are considered "active"; details: active = equal to or greater than chlorpromazine; Fu5AH cells preferred
Excerpt: ACAT esterifies arterial cholesterol which is a key reaction in the development of atherosclerosis. The procedure of Bell, Can. J. Blochem. 60. […] In the ACAT assay it is preferred to use Fu5AH cells, see Lipids 9, 526 (1974). According to this procedure, compounds which inhibit ACAT activity equal to, or greater than, that of chlorpromazine are considered "active".

[7] = test system: interleukin-1; test: inhibition of interleukin-1 induced T cell proliferation assay; format: cell-based; details: active = >30% at 10^-6 M
Excerpt: The inhibition of interleukin-1 induced T cell proliferation assay, Proc. Nat. […] Since people with arthritis make excess interleukin 1, compounds which inhibit the activity of interleukin 1 are useful in the treatment of arthritis. According to this procedure compounds which inhibit the activity of interleukin 1 greater that 30% at 10^-6 M are considered to be "active".

SMILES	inhibition of conjugated diene formation [1]	inhibition of mucous secretion [3]	inhibition of MDA formation [5]	inhibition of interleukin 1 [7]	also measured
CS(=O)(=O)O.C[C@]12CCC(=O)C=C1CC[C@@H]1C2=CC[C@@]2(C)[C@H]1CC[C@]2(O)C(=O)CN1CCN(c2ccccn2)CC1 [Example 2, 17α-Hydroxy-21-[4-(2-pyridinyl)-1piperazinyl]pregna-4,9(11)-diene-3,20di-one methanesulfonate]	demonstrate such activity	demonstrate such activity			arachidonic acid antagonism (elevation of LD50 of arachidonic acid) [2]: demonstrate arachidonic acid antagonism; preferred mucous inhibitors per test results [3]: preferred mucous inhibitors; % of Embryos with 4 mm or Greater A vascular Zone ([4]; 50 μg/10 μl in the presence of heparin): 85%
CCN(CC)c1cc(N2CCN(CC(=O)[C@@]3(O)CC[C@H]4[C@@H]5CCC6=CC(=O)CC[C@]6(C)C5=CC[C@@]43C)CC2)nc(N)n1 [Example 4, 21-[4-[2.Amino-6-(diethylamino)-4-pyrimidinyl]1-piperazinyl]-17α-hydroxypregna-4,9(11)-diene-3,20-dione]	demonstrate such activity	demonstrate such activity			arachidonic acid antagonism (elevation of LD50 of arachidonic acid) [2]: demonstrate arachidonic acid antagonism
C[C@]12CCC(=O)C=C1CC[C@@H]1C2=CC[C@@]2(C)[C@H]1CC[C@]2(O)C(=O)CN1CCC(O)(c2ccc(C(F)(F)F)cc2)CC1 [Example 5, 17α-Hydroxy-21-[4-hydroxy-4 (4-trifiuoromethyl)phenyl 1-piperidinyl]pregna-4,9(11)-diene-3 20-dione]	demonstrate such activity				
CCN(CC)c1nc(N2CCCCC2)cc(N2CCN(CC(=O)[C@@]3(O)CC[C@H]4[C@@H]5CCC6=CC(=O)CC[C@]6(C)C5=CC[C@@]43C)CC2)n1.Cl.O [Example 17, 17α-Hydroxy-21-[4-[2-(diethylamino)-6-(1-piperidinyl)-4-pyrimidinyl]-1-piperazinyl]pregna-4,9(11)-diene-3,20-dione hydrochloride hydrate]			demonstrate such activity		% of Control LD50 ([2]; 100 mg/kg, LD50 of sodium arachidonate): 150%; inhibition of ACAT [6]: active
C[C@H]1C[C@@H]2C(=CC[C@@]3(C)[C@H]2CC[C@]3(O)C(=O)CN2CCN(c3cc(N4CCCC4)nc(N4CCCC4)n3)CC2)[C@@]2(C)C=CC(=O)C=C12 [Example 47, 17α-hydroxy-6α-methyl-21-[4-[2,6-bis(1-pyrrolidinyl)-4-pyrimidinyl-1-piperazinyl)pregna-1,4,9(11)-triene-3,20-dione,(E)-2-butenodioate salt]	demonstrate such activity		demonstrate such activity	demonstrate inhibition of interleukin 1	arachidonic acid antagonism (elevation of LD50 of arachidonic acid) [2]: demonstrate arachidonic acid antagonism
CS(=O)(=O)O.CS(=O)(=O)O.C[C@@H]1C[C@H]2[C@@H]3CCC4=CC(=O)C=C[C@]4(C)C3=CC[C@]2(C)[C@H]1C(=O)CN1CCN(c2cc(N3CCCC3)nc(N3CCCC3)n2)CC1 [Example 83, 16α-Methyl-21-[4-(2,6-bis(1-pyrrolidinyl)-4-pyrimidinyl]-1-piperazinyl]pregna-1,4,9(11)-triene-3,20-dione dimethane-sulfonate]	demonstrate such activity	demonstrate such activity	demonstrate such activity	demonstrate inhibition of interleukin 1	preferred mucous inhibitors per test results [3]: preferred mucous inhibitors; inhibition of angiogenesis [4]: demonstrate inhibition of angiogenesis
C[C@@H]1C[C@H]2[C@@H]3CCC4=CC(=O)C=C[C@]4(C)[C@H]3[C@H](O)C[C@]2(C)[C@H]1C(=O)CN1CCN(c2cc(N3CCCC3)nc(N3CCCC3)n2)CC1 [Example 84, 11α-hydroxy-16α-methyl-21-[4-[2,6-bis(1-pyrrolidinyl)-4-pyrimidinyl]-1-piperazinyl]pregna-1,4-diene 3,20-dione]	demonstrate such activity			demonstrate inhibition of interleukin 1	
C[C@@H]1C[C@H]2[C@@H]3CCC4=CC(=O)C=C[C@]4(C)C3=CC[C@]2(C)[C@H]1C(=O)CN1CCN(c2cc(N3CCOCC3)nc(N3CCOCC3)n2)CC1 [Example 86, 16α-methyl-21-[4-[2,6-bis(4-morpholino)-4-pyrimidinyl]-1-piperazinyl]pregna-1,4,9(11)-triene-3,20-dione]	demonstrate such activity		demonstrate such activity	demonstrate inhibition of interleukin 1	inhibition of angiogenesis [4]: demonstrate inhibition of angiogenesis
C[C@]12CCC(=O)C=C1CC[C@@H]1C2=CC[C@@]2(C)[C@H]1CC[C@]2(O)C(=O)CN1CCN(c2cc(N3CCOCC3)nc(N3CCOCC3)n2)CC1 [Example 105, 21-[4-(2,6-Bis(4-morpholino)-4-pyrimidinyl)-1-piperazinyl]-17α-hydroxypregna-4,9(11)-diene-3,20-dione dihydrochloride, hydrate]		demonstrate such activity		demonstrate inhibition of interleukin 1	preferred mucous inhibitors per test results [3]: preferred mucous inhibitors; inhibition of angiogenesis [4]: demonstrate inhibition of angiogenesis
C[C@]12C=CC(=O)C=C1CC[C@@H]1C2=CC[C@]2(C)[C@@H](C(=O)CN3CCN(c4cc(N5CCCC5)nc(N5CCCC5)n4)CC3)CC[C@@H]12.Cl.Cl [Example 111, 21-[4-(2,6-Bis(1-pyrrolidinyl)-4-pyrimidinyl)-1-piperazinyl]pregna-1,4,9(11)-triene-3,20-dione dihydrochloride]	demonstrate such activity				
CC(CN1CCN(c2cc(N3CCCC3)nc(N3CCCC3)n2)CC1)[C@H]1CC[C@H]2[C@@H]3CCC4=CC(=O)C=C[C@]4(C)[C@H]3CC[C@]12C.CS(=O)(=O)O.O (stereo partly shown) [Example 112, 21-[4-(2,6-Bis(1-pyrrolidinyl)-4-pyrimidinyl)-1-piperazinyl]-20-methylpregna-1,4-dien-3-one methanesulfonate, hydrate]	demonstrate such activity				
